Laboratory results: BigSolDB 2.1

COc1ccccc1N1CCN(CC(O)COc2cccc3ccccc23)CC1 (centres undefined)
solubility (mole fraction)
Details | 273.15 K | 278.15 K | 283.15 K | 288.15 K | 293.15 K | 298.15 K | 303.15 K | 308.15 K | 313.15 K
in acetone | 0.00318 | 0.00399 | 0.00481 | 0.00579 | 0.00676 | 0.00782 | 0.00894 | 0.0102 | 0.0118
in acetonitrile | 0.00113 | 0.00132 | 0.00156 | 0.00182 | 0.00208 | 0.00244 | 0.0028 | 0.00321 | 0.00372
in ethanol | 0.000817 | 0.000955 | 0.00112 | 0.00131 | 0.00152 | 0.00175 | 0.00198 | 0.00229 | 0.00266
in ethyl acetate | 0.00438 | 0.00503 | 0.00585 | 0.0067 | 0.00768 | 0.0087 | 0.00998 | 0.0112 | 0.0126
in methanol | 0.00056 | 0.000636 | 0.000719 | 0.000822 | 0.000922 | 0.00104 | 0.00118 | 0.00133 | 0.0015
in toluene | 0.00534 | 0.00633 | 0.00727 | 0.00847 | 0.00978 | 0.0113 | 0.0129 | 0.0149 | 0.017
